# Experimental data as given in doi:10.1101/2023.11.24.568596v1 (biorxiv, 2023).
# Legend:
# Conditions in all cases: binder
# PIM3 = PIM3 (Homo sapiens, UniProt Q86V86)
# CaMK1d = CaMK1d (Homo sapiens, UniProt Q8IU85)
# JNK1 = JNK1 (Homo sapiens, UniProt P45983)
# MST3 = MST3 (Homo sapiens, UniProt Q9Y6E0)
# Haspin = target: T1, Haspin (Homo sapiens, UniProt Q8TF76)
# T1 sequence (Q8TF76 1-798): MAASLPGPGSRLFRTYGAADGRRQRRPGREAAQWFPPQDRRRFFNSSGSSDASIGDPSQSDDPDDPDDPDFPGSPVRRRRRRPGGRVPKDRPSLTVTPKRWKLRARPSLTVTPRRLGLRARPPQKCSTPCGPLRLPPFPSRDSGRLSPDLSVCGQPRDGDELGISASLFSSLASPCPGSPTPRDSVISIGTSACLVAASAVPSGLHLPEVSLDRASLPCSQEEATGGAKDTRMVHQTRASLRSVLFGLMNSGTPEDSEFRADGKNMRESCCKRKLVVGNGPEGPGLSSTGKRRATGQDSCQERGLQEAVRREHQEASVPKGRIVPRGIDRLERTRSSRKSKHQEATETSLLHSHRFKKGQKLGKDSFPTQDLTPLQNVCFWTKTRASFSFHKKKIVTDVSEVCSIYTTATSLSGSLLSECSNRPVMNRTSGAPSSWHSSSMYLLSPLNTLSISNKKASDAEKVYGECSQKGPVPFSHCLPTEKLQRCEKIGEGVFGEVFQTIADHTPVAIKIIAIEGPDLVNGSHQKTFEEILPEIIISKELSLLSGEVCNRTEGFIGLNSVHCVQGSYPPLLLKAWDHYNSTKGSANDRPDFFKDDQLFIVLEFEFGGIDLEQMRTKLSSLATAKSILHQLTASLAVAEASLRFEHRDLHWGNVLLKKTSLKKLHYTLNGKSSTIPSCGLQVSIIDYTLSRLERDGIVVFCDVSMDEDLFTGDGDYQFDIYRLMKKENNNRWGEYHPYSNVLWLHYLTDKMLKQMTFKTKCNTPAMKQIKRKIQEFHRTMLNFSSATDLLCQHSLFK
# JNK2 = JNK2 (Homo sapiens, UniProt P45984)
# DYRK2 = target: T2, DYRK2 (Homo sapiens, UniProt Q92630)
# T2 sequence (Q92630 1-601): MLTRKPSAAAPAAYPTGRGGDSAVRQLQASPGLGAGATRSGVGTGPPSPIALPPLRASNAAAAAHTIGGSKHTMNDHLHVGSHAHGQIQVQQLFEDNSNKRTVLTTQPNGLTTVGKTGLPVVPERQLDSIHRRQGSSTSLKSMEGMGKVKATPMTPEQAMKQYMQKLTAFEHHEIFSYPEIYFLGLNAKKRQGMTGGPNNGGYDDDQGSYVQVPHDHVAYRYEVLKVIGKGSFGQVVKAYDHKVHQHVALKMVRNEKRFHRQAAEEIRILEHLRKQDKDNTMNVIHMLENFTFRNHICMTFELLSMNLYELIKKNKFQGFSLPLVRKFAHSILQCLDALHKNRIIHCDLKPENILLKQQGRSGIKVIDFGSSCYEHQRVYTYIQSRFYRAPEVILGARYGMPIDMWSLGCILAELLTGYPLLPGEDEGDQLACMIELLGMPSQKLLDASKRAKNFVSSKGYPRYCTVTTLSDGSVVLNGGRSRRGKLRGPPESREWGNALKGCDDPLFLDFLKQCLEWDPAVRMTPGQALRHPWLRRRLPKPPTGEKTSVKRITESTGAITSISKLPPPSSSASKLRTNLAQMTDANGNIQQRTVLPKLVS
# BRD4 = BRD4 (Homo sapiens, UniProt O60885)
# EphB3 = target: T3, EphB3 (Homo sapiens, UniProt P54753)
# T3 sequence (P54753 1-998): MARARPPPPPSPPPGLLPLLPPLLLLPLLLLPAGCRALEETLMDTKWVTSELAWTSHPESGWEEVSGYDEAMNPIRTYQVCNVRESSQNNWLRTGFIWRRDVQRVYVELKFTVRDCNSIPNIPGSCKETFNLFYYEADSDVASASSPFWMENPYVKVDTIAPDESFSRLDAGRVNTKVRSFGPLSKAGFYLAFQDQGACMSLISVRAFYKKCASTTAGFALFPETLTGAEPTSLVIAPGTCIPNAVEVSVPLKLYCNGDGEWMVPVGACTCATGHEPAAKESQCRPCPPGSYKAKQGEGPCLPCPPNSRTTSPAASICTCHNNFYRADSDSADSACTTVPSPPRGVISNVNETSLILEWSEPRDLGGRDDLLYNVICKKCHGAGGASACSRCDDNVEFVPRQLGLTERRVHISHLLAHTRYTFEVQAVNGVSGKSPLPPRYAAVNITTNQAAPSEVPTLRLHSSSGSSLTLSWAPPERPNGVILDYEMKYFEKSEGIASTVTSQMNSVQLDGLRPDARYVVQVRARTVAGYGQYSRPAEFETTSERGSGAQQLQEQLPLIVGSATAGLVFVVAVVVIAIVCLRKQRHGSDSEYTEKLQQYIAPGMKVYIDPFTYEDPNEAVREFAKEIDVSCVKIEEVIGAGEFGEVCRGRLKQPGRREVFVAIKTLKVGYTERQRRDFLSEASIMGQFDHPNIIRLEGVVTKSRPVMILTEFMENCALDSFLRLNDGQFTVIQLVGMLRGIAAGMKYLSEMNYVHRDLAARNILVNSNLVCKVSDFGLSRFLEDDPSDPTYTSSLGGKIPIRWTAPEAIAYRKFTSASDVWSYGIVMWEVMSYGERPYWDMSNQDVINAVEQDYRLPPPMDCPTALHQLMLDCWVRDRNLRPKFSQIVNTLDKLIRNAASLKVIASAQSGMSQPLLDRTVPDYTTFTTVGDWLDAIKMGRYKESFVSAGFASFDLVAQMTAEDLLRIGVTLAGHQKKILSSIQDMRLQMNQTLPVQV
# Sequence of JNK1 (P45983 whole entry): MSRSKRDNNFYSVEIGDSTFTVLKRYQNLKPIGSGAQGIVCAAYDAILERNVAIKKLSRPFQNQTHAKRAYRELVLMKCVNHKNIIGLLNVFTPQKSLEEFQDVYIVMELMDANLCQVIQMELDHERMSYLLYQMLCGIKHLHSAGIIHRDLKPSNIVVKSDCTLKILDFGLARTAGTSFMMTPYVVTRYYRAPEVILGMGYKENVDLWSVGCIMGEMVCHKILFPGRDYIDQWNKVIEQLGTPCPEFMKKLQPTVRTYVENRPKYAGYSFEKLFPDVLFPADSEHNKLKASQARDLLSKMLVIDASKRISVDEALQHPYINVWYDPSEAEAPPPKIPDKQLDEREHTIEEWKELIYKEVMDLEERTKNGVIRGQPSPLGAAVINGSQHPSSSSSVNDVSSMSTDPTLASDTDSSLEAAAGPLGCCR
# Sequence of MST3 (Q9Y6E0 whole entry): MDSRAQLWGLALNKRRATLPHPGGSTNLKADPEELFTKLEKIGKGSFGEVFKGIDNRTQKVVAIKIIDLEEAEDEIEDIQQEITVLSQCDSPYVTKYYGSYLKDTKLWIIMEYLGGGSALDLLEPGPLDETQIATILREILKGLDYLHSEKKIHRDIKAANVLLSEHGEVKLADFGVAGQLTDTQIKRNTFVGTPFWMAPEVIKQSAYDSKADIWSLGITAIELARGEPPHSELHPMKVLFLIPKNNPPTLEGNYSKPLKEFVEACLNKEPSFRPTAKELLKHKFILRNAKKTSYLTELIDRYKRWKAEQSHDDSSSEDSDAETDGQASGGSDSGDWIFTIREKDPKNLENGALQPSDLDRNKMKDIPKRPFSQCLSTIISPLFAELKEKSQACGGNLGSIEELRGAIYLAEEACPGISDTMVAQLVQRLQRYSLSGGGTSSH
# Sequence of CaMK1d (Q8IU85 whole entry): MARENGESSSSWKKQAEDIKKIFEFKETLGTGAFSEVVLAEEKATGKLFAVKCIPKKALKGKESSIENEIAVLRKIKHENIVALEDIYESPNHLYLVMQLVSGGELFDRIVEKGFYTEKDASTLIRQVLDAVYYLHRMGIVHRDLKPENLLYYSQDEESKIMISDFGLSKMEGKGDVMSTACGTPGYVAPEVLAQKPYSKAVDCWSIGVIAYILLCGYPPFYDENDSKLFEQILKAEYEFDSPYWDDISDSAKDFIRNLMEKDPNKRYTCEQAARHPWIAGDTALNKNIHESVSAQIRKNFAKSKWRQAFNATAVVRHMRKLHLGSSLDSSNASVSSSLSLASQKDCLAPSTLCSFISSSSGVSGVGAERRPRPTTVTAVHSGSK
# Sequence of JNK2 (P45984 whole entry): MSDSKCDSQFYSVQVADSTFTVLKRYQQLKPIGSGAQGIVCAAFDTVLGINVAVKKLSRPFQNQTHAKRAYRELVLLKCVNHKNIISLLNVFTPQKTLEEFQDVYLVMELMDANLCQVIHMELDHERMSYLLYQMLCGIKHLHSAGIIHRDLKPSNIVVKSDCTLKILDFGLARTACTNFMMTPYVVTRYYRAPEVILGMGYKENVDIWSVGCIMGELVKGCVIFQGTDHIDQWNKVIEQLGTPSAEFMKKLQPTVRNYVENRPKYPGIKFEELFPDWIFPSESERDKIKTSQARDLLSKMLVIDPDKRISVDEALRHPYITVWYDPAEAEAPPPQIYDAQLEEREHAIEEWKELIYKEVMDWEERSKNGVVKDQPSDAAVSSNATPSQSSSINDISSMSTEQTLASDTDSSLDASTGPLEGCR
structure (smiles),measurement,setting,value
"Cc1cccc(-c2ccc(-c3cc4cnc(Nc5cc(C(F)(F)F)ccc5C)nc4n(CCCCN)c3=O)c(Cl)c2)n1 [compound 28, 8-(4-Aminobutyl)-6-(2-chloro-4-(6-methylpyridin-2-yl)phenyl)-2-((2-methyl-5-(trifluoromethyl)phenyl)amino)pyrido[2,3-d]pyrimidin-7(8H)-one]",ΔTm 28,PIM3,0.5 °C
same,ΔTm 28,CaMK1d,4.8 °C
same,ΔTm 28,JNK1,2.8 °C
same,ΔTm 28,MST3,12.1 °C
same,ΔTm 28,Haspin,-1.3 °C
same,ΔTm 28,JNK2,0.0 °C
same,ΔTm 28,DYRK2,-0.7 °C
same,ΔTm 28,BRD4,-3.7 °C
same,ΔTm 28,EphB3,4.1 °C
"Cc1cccc(-c2ccc(-c3cc4cnc(Nc5ccc(CCCO)cc5)nc4n(CCCCN)c3=O)c(Cl)c2)n1 [compound 30, 8-(4-Aminobutyl)-6-(2-chloro-4-(6-methylpyridin-2-yl)phenyl)-2-((4-(3-hydroxypropyl)phenyl)amino)pyrido[2,3-d]pyrimidin-7(8H)-one]",ΔTm 30,PIM3,-0.8 °C
same,ΔTm 30,CaMK1d,6.8 °C
same,ΔTm 30,JNK1,2.8 °C
same,ΔTm 30,MST3,15.5 °C
same,ΔTm 30,Haspin,0.4 °C
same,ΔTm 30,JNK2,4.3 °C
same,ΔTm 30,DYRK2,-1.1 °C
same,ΔTm 30,BRD4,-2.4 °C
same,ΔTm 30,EphB3,6.9 °C
"Cc1cccc(-c2ccc(-c3cc4cnc(Nc5ccc(C)c(O)c5)nc4n(CCCCN)c3=O)c(Cl)c2)n1 [compound 32, 8-(4-Aminobutyl)-6-(2-chloro-4-(6-methylpyridin-2-yl)phenyl)-2-((3-hydroxy-4-methylphenyl)amino)pyrido[2,3-d]pyrimidin-7(8H)-one]",ΔTm 32,PIM3,1.5 °C
same,ΔTm 32,CaMK1d,6.0 °C
same,ΔTm 32,JNK1,1.9 °C
same,ΔTm 32,MST3,15.4 °C
same,ΔTm 32,Haspin,-1.5 °C
same,ΔTm 32,JNK2,3.3 °C
same,ΔTm 32,DYRK2,-1.4 °C
same,ΔTm 32,BRD4,-2.7 °C
same,ΔTm 32,EphB3,8.5 °C
"Cc1cccc(-c2ccc(-c3cc4cnc(NCCCN5CCCC5=O)nc4n(CCCCN)c3=O)c(Cl)c2)n1 [compound 27, MR30]",ΔTm MR30 (27),PIM3,-2.7 °C
same,ΔTm MR30 (27),CaMK1d,2.4 °C
same,ΔTm MR30 (27),JNK1,0.4 °C
same,ΔTm MR30 (27),MST3,9.8 °C
same,ΔTm MR30 (27),Haspin,-0.7 °C
same,ΔTm MR30 (27),JNK2,0.7 °C
same,ΔTm MR30 (27),DYRK2,-0.4 °C
same,ΔTm MR30 (27),BRD4,-3.9 °C
same,ΔTm MR30 (27),EphB3,2.3 °C
"Cc1cccc(-c2ccc(-c3cc4cnc(Nc5ccc(O)cc5)nc4n(CCCCN)c3=O)c(Cl)c2)n1 [compound 31, 8-(4-Aminobutyl)-6-(2-chloro-4-(6-methylpyridin-2-yl)phenyl)-2-((4-hydroxyphenyl)amino) pyrido[2,3-d]pyrimidin-7(8H)-one]",ΔTm 31,PIM3,4.5 °C
same,ΔTm 31,CaMK1d,5.6 °C
same,ΔTm 31,JNK1,2.7 °C
same,ΔTm 31,MST3,16.1 °C
same,ΔTm 31,Haspin,-0.4 °C
same,ΔTm 31,JNK2,4.2 °C
same,ΔTm 31,DYRK2,-0.8 °C
same,ΔTm 31,BRD4,-1.6 °C
same,ΔTm 31,EphB3,5.3 °C
"Cc1cccc(-c2ccc(-c3cc4cnc(NCCCN5CCNCC5)nc4n(CCCCN)c3=O)c(Cl)c2)n1 [compound 29, 8-(4-Aminobutyl)-6-(2-chloro-4-(6-methylpyridin-2-yl)phenyl)-2-((3-(piperazin-1-yl)propyl)amino)pyrido[2,3-d]pyrimidin-7(8H)-one]",ΔTm 29,PIM3,0.0 °C
same,ΔTm 29,CaMK1d,3.7 °C
same,ΔTm 29,JNK1,0.7 °C
same,ΔTm 29,MST3,14.3 °C
same,ΔTm 29,Haspin,-1.2 °C
same,ΔTm 29,JNK2,-0.1 °C
same,ΔTm 29,DYRK2,-0.2 °C
same,ΔTm 29,BRD4,-2.2 °C
same,ΔTm 29,EphB3,2.3 °C
